We go through eleven compounds from ChEMBL document CHEMBL1201862, “PubChem BioAssay data set” (2004).

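Test compounds were applied to cells in 96-well plates for 48 hours at 5 doses. GI50 marks 50% less growth.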 The source made the active and inactive calls. Cut-off read from the data, not from the text of the source: active = GI50 up to about 1.1 µM and inactive = higher.

Test systems include 786-0; CAKI-1; CCRF-CEM; HCT-116; HL-60; HT-29; IGROV-1; K562; MOLT-4; NCI-H226; NCI-H23; OVCAR-3; OVCAR-8; SF-295; SK-MEL-28; SK-MEL-5; SNB-19; SR; OVCAR-4; RXF 393.
Assay in all cases: NCI tumour cell line growth inhibition, 48 h

As to `O=c1c2ccccc2nc2[nH][nH]c(=S)n12`, the GI50 in the experiment on 786-0, in the experiment on CAKI-1, in the experiment on CCRF-CEM, in the experiment on HCT-116, in the experiment on HL-60 and with HT-29 was > 100 µM (inactive) in each case. The GI50 in the experiment with IGROV-1 is > 100 µM (inactive); in the experiment on K562, > 100 µM (inactive); in the experiment on MOLT-4, 58.6 µM (inactive); with NCI-H226, > 100 µM (inactive); with NCI-H23, > 100 µM (inactive); in the experiment with OVCAR-3, > 100 µM (inactive). Moreover, the GI50 in the experiment on OVCAR-8, with SF-295, with SK-MEL-28, with SK-MEL-5, with SNB-19 and in the experiment on SR was > 100 µM (inactive) each time.

As to `CCOC(=O)NCC(=O)NCC(=O)NCC(N)=O`, the GI50 with 786-0, in the experiment on CAKI-1, in the experiment on CCRF-CEM, in the experiment with HCT-116, in the experiment with HT-29 and with IGROV-1 was > 100 µM (inactive) throughout. In addition, the GI50 with K562, in the experiment on MOLT-4, in the experiment on NCI-H226, with NCI-H23, with OVCAR-3 and with OVCAR-4 was > 100 µM (inactive) in each case. In addition, the GI50 in the experiment with OVCAR-8, in the experiment with RXF 393, in the experiment with SF-295, in the experiment on SK-MEL-28, with SK-MEL-5 and in the experiment on SNB-19 was > 100 µM (inactive) in each case. Also, the GI50 with SR is > 100 µM (inactive).

Regarding `COc1ccc2cc(NC(=O)N/N=C\c3ccc(Cl)cc3)ccc2c1`, the GI50 was 40 µM (inactive) in the experiment with 786-0; > 100 µM (inactive) in the experiment with CAKI-1; > 100 µM (inactive) with CCRF-CEM; > 100 µM (inactive) with HCT-116; > 100 µM (inactive) in the experiment with HL-60; > 100 µM (inactive) in the experiment on HT-29. For the same compound, the GI50 is 88.7 µM (inactive) in the experiment on IGROV-1; > 100 µM (inactive) in the experiment on K562; > 100 µM (inactive) in the experiment with MOLT-4; > 100 µM (inactive) in the experiment on NCI-H226; > 100 µM (inactive) in the experiment on NCI-H23; > 100 µM (inactive) with OVCAR-3. Moreover, the GI50 in the experiment on OVCAR-4 was 27 µM (inactive); with OVCAR-8, 96.8 µM (inactive); with SF-295, 59.6 µM (inactive); in the experiment on SK-MEL-28, > 100 µM (inactive); in the experiment on SNB-19, 46.2 µM (inactive); in the experiment with SR, > 100 µM (inactive).

For `Cc1ccc2nc3c(C)cc(=O)cc-3sc2c1`, the GI50 was 18.7 µM (inactive) in the experiment on 786-0; 19.3 µM (inactive) in the experiment with CAKI-1; 10.5 µM (inactive) with CCRF-CEM; 17.3 µM (inactive) with HCT-116; 2.45 µM (inactive) with HL-60; 36.2 µM (inactive) with HT-29. For the same compound, the GI50 in the experiment on IGROV-1 is 31.8 µM (inactive); in the experiment on K562, 12.6 µM (inactive); in the experiment with MOLT-4, 12.6 µM (inactive); in the experiment on NCI-H226, 24.8 µM (inactive); with NCI-H23, 20.8 µM (inactive); with OVCAR-3, 22 µM (inactive). In addition, the GI50 in the experiment with OVCAR-4 was 16.7 µM (inactive); with OVCAR-8, 22.8 µM (inactive); in the experiment on SF-295, 31.5 µM (inactive); in the experiment on SK-MEL-28, 25.9 µM (inactive); in the experiment with SK-MEL-5, 15.5 µM (inactive); in the experiment with SNB-19 it was 38.1 µM (inactive). Further, in the experiment on SR, the GI50 is 19.1 µM (inactive).

Consider `COC(=O)NC(=O)c1cn(C2OC(CO)C(O)C2O)c(=O)[nH]c1=O` (stereo not drawn), for which the GI50 in the experiment on 786-0, with CAKI-1, in the experiment with HCT-116, in the experiment on HL-60, in the experiment on HT-29 and in the experiment on IGROV-1 was > 100 µM (inactive) each time. For the same compound, the GI50 in the experiment with K562, in the experiment with MOLT-4, in the experiment with NCI-H226, with NCI-H23, in the experiment on OVCAR-3 and in the experiment with OVCAR-4 was > 100 µM (inactive) throughout. The GI50 in the experiment on OVCAR-8, in the experiment with SF-295, in the experiment with SK-MEL-28, in the experiment with SNB-19 and in the experiment with SR was > 100 µM (inactive) throughout.

For `COC(=O)C1CCC(=O)N1C(c1ccccc1)c1ccc(OC)c(OC)c1` (stereo not drawn), the GI50 in the experiment with 786-0 was > 100 µM (inactive); with CAKI-1, > 100 µM (inactive); in the experiment on CCRF-CEM, > 10 µM (inactive); in the experiment with HCT-116 it was > 100 µM (inactive); in the experiment on HL-60, > 100 µM (inactive); with HT-29, > 100 µM (inactive). Besides, the GI50 is > 100 µM (inactive) in the experiment on IGROV-1; > 100 µM (inactive) in the experiment with K562; > 10 µM (inactive) in the experiment on MOLT-4; > 100 µM (inactive) with NCI-H226; > 100 µM (inactive) with NCI-H23; > 100 µM (inactive) in the experiment with OVCAR-3. In addition, the GI50 in the experiment with OVCAR-4, with OVCAR-8, in the experiment on SF-295, with SK-MEL-28, with SK-MEL-5 and in the experiment on SNB-19 was > 100 µM (inactive) throughout. The GI50 in the experiment on SR was > 100 µM (inactive).

For the compound `O=C(N/C(=C\c1ccc([N+](=O)[O-])cc1)c1nc2c(O)nc(S)nc2[nH]1)c1ccccc1`, the GI50 with 786-0 was > 100 µM (inactive); with CAKI-1, > 100 µM (inactive); with CCRF-CEM, 92.3 µM (inactive); with HT-29 it was > 100 µM (inactive); in the experiment on IGROV-1 it was > 100 µM (inactive); in the experiment on K562, 73.1 µM (inactive). The GI50 in the experiment with MOLT-4 is 88.7 µM (inactive); in the experiment on NCI-H23, > 100 µM (inactive); with OVCAR-3 it was > 100 µM (inactive); with OVCAR-4 it was 99.5 µM (inactive); with OVCAR-8, > 100 µM (inactive); with RXF 393 it was > 100 µM (inactive). The GI50 in the experiment on SF-295, in the experiment on SK-MEL-28, in the experiment on SK-MEL-5, in the experiment on SNB-19 and in the experiment with SR was > 100 µM (inactive) throughout.

`COC1OC(Cn2cc([N+](=O)[O-])nc2C)C(O)C(O)C1O` (stereo not drawn): the GI50 in the experiment with 786-0, in the experiment with CAKI-1, in the experiment with CCRF-CEM, in the experiment with HCT-116, in the experiment with HT-29 and in the experiment with IGROV-1 was > 100 µM (inactive) in each case. Besides, the GI50 in the experiment on K562, in the experiment on MOLT-4, in the experiment with NCI-H23, in the experiment on OVCAR-3, in the experiment with OVCAR-4 and in the experiment with RXF 393 was > 100 µM (inactive) throughout. The GI50 in the experiment on SF-295, in the experiment on SK-MEL-28, with SK-MEL-5, with SNB-19 and with SR was > 100 µM (inactive) in each case.

As for `CC(C)(CN1CCCCC1)C(/C=C/c1ccccc1)=N\NC(=O)N/N=C(/C=C/c1ccccc1)C(C)(C)CN1CCCCC1`, the GI50 with 786-0 is 1.46 µM (inactive); in the experiment on CAKI-1, 2.27 µM (inactive); with CCRF-CEM, 1.19 µM (inactive); in the experiment with HCT-116, 1.58 µM (inactive); in the experiment on HL-60, 1.08 µM (active); in the experiment with HT-29, 1.07 µM (active). Also, the GI50 in the experiment with IGROV-1 is 2.51 µM (inactive); in the experiment on K562, 1.19 µM (inactive); in the experiment on MOLT-4, 1.67 µM (inactive); with NCI-H226, 2.37 µM (inactive); in the experiment with NCI-H23, 2.08 µM (inactive); with OVCAR-3, 2.34 µM (inactive). Moreover, the GI50 was 3.93 µM (inactive) in the experiment with OVCAR-4; 1.78 µM (inactive) in the experiment with OVCAR-8; 1.69 µM (inactive) with SF-295; 1.68 µM (inactive) in the experiment on SK-MEL-28; 1.72 µM (inactive) with SK-MEL-5; 1.91 µM (inactive) with SNB-19. Also, in the experiment with SR, the GI50 was 0.508 µM (active).

For the compound `COc1c(C)c(C/C=C(\C)CCCCO)c(OC)c2ccccc12`, the GI50 is 38 µM (inactive) in the experiment on 786-0; 17.9 µM (inactive) in the experiment with CAKI-1; 28.8 µM (inactive) with CCRF-CEM; 28.9 µM (inactive) in the experiment on HCT-116; 20.4 µM (inactive) in the experiment with HT-29; 65.8 µM (inactive) in the experiment on IGROV-1. Moreover, the GI50 with K562 was 29.4 µM (inactive); in the experiment with MOLT-4, 21.2 µM (inactive); with NCI-H23, 29.7 µM (inactive); in the experiment with OVCAR-3, 62.4 µM (inactive); in the experiment with OVCAR-4, 38.5 µM (inactive); in the experiment on OVCAR-8 it was 33.1 µM (inactive). In addition, the GI50 with RXF 393 is 79.6 µM (inactive); in the experiment on SF-295 it was 41.4 µM (inactive); in the experiment on SK-MEL-5 it was 16.9 µM (inactive); with SNB-19 it was > 100 µM (inactive); in the experiment on SR, 26.3 µM (inactive).

With `Cc1cccc2c1[C@]13OC(C)[C@]4(C)CC5OC(=O)[C@@]1(C)[C@@H]5[C@]34C(=O)O2` (stereo partly drawn), the GI50 in the experiment on 786-0, with CAKI-1, with CCRF-CEM, in the experiment on HCT-116, with HL-60 and in the experiment with HT-29 was > 100 µM (inactive) each time. Moreover, the GI50 in the experiment on IGROV-1, with K562, in the experiment on MOLT-4, in the experiment with NCI-H226, in the experiment with NCI-H23 and in the experiment on OVCAR-3 was > 100 µM (inactive) each time. Moreover, the GI50 in the experiment with OVCAR-8, in the experiment on SF-295, in the experiment with SK-MEL-28, in the experiment on SK-MEL-5, in the experiment with SNB-19 and in the experiment on SR was > 100 µM (inactive) in each case.
